Measurements reported in patent US10849896B2, “Sortilin-binding small molecules for increasing glucose uptake” (University of South Florida, priority 2015, dated 2020).

Columns and labels:
Format in all cases: cell-based, mouse
3T3L1 cells = test: [3-H]-deoxy-2-D-Glucose uptake in 3T3L1 adipocytes; details: 500 nM; for glucose uptake: added day 3 of differentiation, maintained to day 8, without insulin; for glucose uptake with addition of insulin: day 3 to day 8, 100 nM insulin for 30 minutes
Description: To examine glucose uptake, 3T3L1 cells were treated on day 3 of differentiation with either 2-(3,5-dioxo-4-azatricyclo[5.2.1.0(2,6)]dec-8-en-4-yl)-4-methylpentanoic acid or 4-[(3,4-dichlorophenyl)amino]-3-(3-methylbenzyl)-4-oxobutanoic acid at 500 nM concentration and maintained in culture up to day 8 when the cells mature into adipocytes with well-developed lipid bodies. After 100 nM insulin was added to cells and maintained for 30 minutes, [3-H]-deoxy-2-D-Glucose uptake was measured.

sortilin mRNA = test: RT-PCR for sortilin mRNA in treated 3T3L1 cells; details: 500 nM, added day 3 of differentiation, maintained to day 8; total RNA
Description: (§1) 2-(3,5-Dioxo-4-azatricyclo[5.2.1.0˜2,6˜]dec-8-en-4-yl)-4-methylpentanoic acid and 4-[(3,4-dichlorophenyl)amino]-3-(3-methylbenzyl)-4-oxobutanoic acid were used to treat 3T3L1 cells at 500 nM concentration on day 3 of differentiation and maintained in culture up to day 8 when the cells mature into adipocytes with well-developed lipid bodies. Whole cell lysate was isolated and western blot analysis was performed using anti-sortilin antibody. […] To determine the compounds effect sortilin gene expression, 3T3L1 cells were treated as above and total RNA was isolated. RT-PCR was performed using sortilin primers.

sortilin = test: Western blot for sortilin expression in treated 3T3L1 cells; details: 500 nM, added day 3 of differentiation, maintained to day 8; whole cell lysate
Description: as §1

Structure (SMILES)	glucose uptake (3T3L1 cells)	glucose uptake with addition of insulin (3T3L1 cells)	mRNA levels of sortilin (RT-PCR) (sortilin mRNA)	sortilin expression (western blot, anti-sortilin antibody) (sortilin)
CC(C)CC(C(=O)O)N1C(=O)C2C3C=CC(C3)C2C1=O (centres unmarked) [2-(3,5-dioxo-4-azatricyclo[5.2.1.0(2,6)]dec-8-en-4-yl)-4-methylpentanoic acid]	increase in glucose uptake	further increased	not affected	increase in sortilin expression
Cc1cccc(CC(CC(=O)O)C(=O)Nc2ccc(Cl)c(Cl)c2)c1 (centres unmarked) [4-[(3,4-dichlorophenyl)amino]-3-(3-methylbenzyl)-4-oxobutanoic acid]	increase in glucose uptake	further increased	not affected	increase in sortilin expression
